Patent publication US5001228A, “Bis-alkylamide azo polymerization initiators” (Wako Pure Chemical Industries, Ltd., priority 1988, dated 1991)

Legend:
[1] = Solubility (15° C.); assay type: physicochemical; details: for Solubility in DMF: dimethylformamide (DMF); for solubility: water
[2] = Decomposition rate constant; assay type: physicochemical; details: 80° C.

SMILES	Solubility in acetone [1]	Solubility in DMF [1]	Solubility in methanol [1]	Solubility in toluene [1]	solubility [1]	Decomposition rate constant [2]
C=CCNC(=O)C(C)(C)N=NC(C)(C)C(=O)NCC=C [Compound (2), 2,2'-azobis[N-(2-propenyl)-2-methylpropionamide]]	≥ 10%	≥ 10%	≥ 10%	≥ 10%	≤ 10 mg/mL	2.80 × 10^-6 sec.^-1
CC(C)(N=NC(C)(C)C(=O)NCc1ccc(Cl)cc1)C(=O)NCc1ccc(Cl)cc1 [Compound (3), 2,2'-azobis[N-(p-chlorobenzyl)-2-methylpropionamide]]	≥ 10%	≥ 10%	~5%	≤ 1%	≤ 10 mg/mL	–
CC(C)(N=NC(C)(C)C(=O)NCc1cccnc1)C(=O)NCc1cccnc1 [Compound (4), 2,2'-azobis[N-[(pyridin-3-yl)methyl]-2-methylpropionamide]·2H2 O]	3%	1.5%	≥ 10%	–	≤ 10 mg/mL	–
CC(C)(N=NC(C)(C)C(=O)NCc1ccncc1)C(=O)NCc1ccncc1 [Compound (5), 2,2'-azobis[N-[(pyridin-4-yl)methyl]-2-methylpropionamide]·2H2 O]	≤ 1%	3%	~9%	–	≤ 10 mg/mL	–
CC(C)(N=NC(C)(C)C(=O)NCC1CCNCC1)C(=O)NCC1CCNCC1 [Compound (6), 2,2'-azobis[N-[(piperidin-4-yl)methyl]2-methylpropionamide]·2HCl]	≤ 1%	≤ 1%	≥ 10%	≤ 1%	≥ 100 mg/mL	–
CC(C)(N=NC(C)(C)C(=O)NCCN1CCNCC1)C(=O)NCCN1CCNCC1 [Compound (7)]	≤ 1%	1.5%	≥ 10%	–	≥ 100 mg/mL	–
